From patent US5047340A, “LAC+ saccharomyces cerevisiae” (The University of Kentucky Research Foundation, priority 1988, dated 1991)
Values joined by “and” are separate entries in the source; they are usually repeats but may differ in a detail not shown here. Identical values can stand only once.

Key:
[1] = system: lactose transport in K. lactis MS425/pKR1B; experiment: Lactose transport ([14C]lactose uptake) in K. lactis; assay type: cell-based
Method: (§1) After warming the cells to 23° C. the competing compound was added to a final concentration of 50 mM. Thirty seconds later [^14 C] lactose was added to a final concentration of 1 mM and 100 μl samples were filtered 1 and 2 minutes later. […] For K. lactis the experiment was done twice and for S. cerevisiae it was done three times. Averaged values with or without a standard deviation are shown.
(§2) Finally, the lactose transport in LAC^+ S. cerevisiae was determined to be an energy-dependent process, as it is in K. lactis. To measure energy dependence, cells were pre-incubated for 20 minutes with 1 mM 2,4-dinitrophenol at ambient temperature.
(§3) The kinetics of lactose transport were measured to determine if Lac^+ S. cerevisiae transported measurable quantities of lactose and to determine the time scale over which the apparent initial velocity of transport could be measured. Lactose transport was measured using the following procedure. Saturated cultures of cells were obtained by growth at 30° C. in medium A: 10 g yeast extract, 20 g peptone, 100 ml of 20% lactic acid (titrated to pH 4.5 with solid sodium hydroxide) and 100 ml of 20% glycerol per liter, or medium B: 3.4 g yeast nitrogen base (Difco, without amino acids or ammonium sulfate), 10 g ammonium sulfate, 3 g 20 mg adenine, 20 mg uracil, 20 mg leucine, 20 mg histidine, 20 mg tryptophan, 20 mg methionine and 20 mg lysine per liter. Strain MS425/pKR1B of K. lactis was grown on medium A containing 10 μg G418/ml, while S. cerevisiae strains L1582/pKR1B, and YNN27/pKR1B were grown on the same medium containing 200 μg […] Strains L1582 or YNN27 transformed with either plasmid A, B, or C (autonomous or integrated) were grown on medium B.
(§4) This procedure is a modification of the procedure described by Serrano, R. (1977) European J. of Biochem. 80:97-10^2. To prepare cells for transport measurements, a saturated culture was diluted into fresh medium and grown from […]. Cells were harvested by filtration (45 mm dia, 0.45 μm Millipore type HA), washed four times with 10 ml of ice cold distilled water, and then resuspended in 100 mM tartaric acid (titrated to pH 4.2 with sodium hydroxide) at 60 to 100 A600 /ml. At this point cells could be stored at 4° C. for up to 24 hours without loss of transport activity.
(§5) To measure lactose transport, a sample of cells, 0.3 to 1.0 ml, was warmed to 23° C. for 2 min, lactose was added to the desired concentrations and at zero time 0.luCi of D-Glucose-[^14C ]lactose (CFA 278; 58 mCi/mM; Amersham Corp., Lexington, Mass.) was added per 0.3 ml of cells. At the indicated times 100 μl samples were filtered on 25 mm diameter Nuclepore filters (0.4μm pore size; Nuclepore Corp., Pleasanton, Cal.). The filter was washed twice with 5 ml of ice cold distilled water, dried and counted in 4 ml of a toluene-based cocktail containing 250 ml of triton X-100 and 6.5 g p-terphenyl per liter using a liquid scintillation counter. The specific activity, cpm/pmole of lactose, of each reaction was determined by counting a 10 μl sample. Data are expressed as pmoles of intracellular lactose per A600. Background transport was measured using cells that were heated for 3 min at 90° C. Typical background was 25 to 30 cpm.
The lactose transport in Lac^+ S. cerevisiae was determined to be an energy-dependent process, as it is in K. lactis. To measure energy dependence, cells were pre-incubated with 1 mM […] for 20 minutes at ambient temperature and then the uptake of 1 mM ^14 C-lactose was measured. Lactose transport was inhibited 91% both in the Lac^+ strain of S. cerevisiae , L1582/pKR1B-LAC4-1, and in the K. lactis strain MS425/pKR1B.

[2] = system: lactose transport in S. cerevisiae L1582/pKR1B-LAC4-1; experiment: Lactose transport ([14C]lactose uptake) in Lac+ S. cerevisiae; assay type: cell-based; details: for inhibition of lactose transport (stereospecificity, in words): summary of Table 1 (L1582/pKR1B-LAC4-1 and K. lactis)
Method: The rate of lactose transport as a function of substrate concentration is shown for two experiments using Lac^+ L1582/pKR1B-LAC4-1 (.smallcircle.--.smallcircle.) and Lac^+ L1582/pKR1B-LAC4-Δ1087(.quadrature.--.quadrature.). For each concentration of lactose, the rate of transport represented the average of samples taken at 30, 60, and 90 seconds.
as §1, §2, §3, §4, §5
The lactose transport in Lac^+ S. cerevisiae was determined to be an energy-dependent process, as it is in K. lactis. To measure energy dependence, cells were pre-incubated with 1 mM […] for 20 minutes at ambient temperature and then the uptake of 1 mM ^14 C-lactose was measured. […]

[3] = pre-incubated 20 minutes with 1 mM at ambient temperature
[4] = Kluyveromyces lactis, competing compound 50 mM, [14C]lactose 1 mM, 23° C., samples at 1 and 2 minutes, average of two experiments
[5] = Saccharomyces cerevisiae, competing compound 50 mM, [14C]lactose 1 mM, 23° C., samples at 1 and 2 minutes, average of three experiments with standard deviation

Row | Structure (SMILES) | inhibition of lactose transport (stereospecificity, in words) [2] | inhibition at 50000 µM [1, 4] | inhibition at 50000 µM [2, 5] | other results
1 | O=[N+]([O-])c1ccc(O)c([N+](=O)[O-])c1 [2,4-dinitrophenol] | – | – | – | inhibition at 1000 µM ([1]; Kluyveromyces lactis, read-out: Lactose transport inhibited (energy dependence), K. lactis MS425/pKR1B): 91%; Lactose transport inhibition in words (energy dependence), K. lactis MS425/pKR1B [1, 3]: inhibited almost completely; inhibition at 1000 µM ([2]; Saccharomyces cerevisiae, read-out: Lactose transport inhibited (energy dependence), S. cerevisiae L1582/pKR1B-LAC4-1): 91%; Lactose transport inhibition in words (energy dependence), S. cerevisiae L1582/pKR1B-LAC4-1 [2, 3]: inhibited almost completely
2 | O=C[C@@H](O)[C@H](O[C@@H]1O[C@H](CO)[C@H](O)[C@H](O)[C@H]1O)[C@H](O)CO [3-0-β-D-galactosyl-D-arabinose] | strongest inhibition | – | – | % Inhibition of Lactose Transport, K. lactis MS425/pKR1B ([1]; competing compound 50 mM, [14C]lactose 1 mM, 23° C., samples at 1 and 2 minutes, average of two experiments): 93%; % Inhibition of Lactose Transport, S. cerevisiae L1582/pKR1B-LAC4-1 ([2]; competing compound 50 mM, [14C]lactose 1 mM, 23° C., samples at 1 and 2 minutes, average of three experiments with standard deviation): 90 ± 6%
3 | O=[N+]([O-])c1ccc(O[C@H]2O[C@H](CO)[C@H](O)[C@H](O)[C@H]2O)cc1 [4-nitrophenyl-α-D-galactoside] | inhibited only weakly | – | – | –
4 | OC[C@H]1O[C@H](OC[C@H]2OC(O)[C@H](O)[C@@H](O)[C@@H]2O)[C@H](O)[C@@H](O)[C@H]1O (stereo partly drawn) [6-0-α-D-galactosyl-D-glucose] | inhibited only weakly | 10% | 10.7 ± 8% | –
5 | O=C[C@H](O)[C@@H](O)[C@@H](O)[C@H](O)CO [D-galactose] | only moderate inhibition | 26% | 24.3 ± 7.2% | –
6 | OC[C@H]1O[C@@H](S[C@@H]2O[C@H](CO)[C@H](O)[C@H](O)[C@H]2O)[C@H](O)[C@@H](O)[C@H]1O [D-galactosyl-1-thio-β-D-galactoside] | only moderate inhibition | 28% | 4.9 ± 4% | –
7 | OC[C@H]1O[C@@H](O[C@H]2[C@H](O)[C@@H](O)C(O)O[C@@H]2CO)[C@H](O)[C@@H](O)[C@H]1O (stereo partly drawn) [lactose, 4-0-beta-D-galactosyl-D-glucose] | – | – | – | Km ([1]; K. lactis strain MS425, read-out: apparent Km for lactose transport, K. lactis strain MS425): 670 µM; Km ([2]; two experiments of FIG. 4: Lac+ L1582/pKR1B-LAC4-1 and Lac+ L1582/pKR1B-LAC4-Δ1087, rates averaged from 30, 60 and 90 seconds, read-out: apparent Km for lactose transport, Lac+ S. cerevisiae): 970 µM and 1090 µM
